The values below come from patent US6528043B2, “Composition containing sapogenin” (L'Oreal, priority 1999, dated 2003).

The nature of this data set: Maximum amount of diosgenin which can be dissolved at 50° C. (procedure repeated, varying the amount of diosgenin). The data set is classed as physicochemical. Here is the method:
The above compositions were prepared in the following way. 100 mg of diosgenin were weighed out and placed in a hermetic pillbox, to which 4.9 g of the solvent(s) were added with magnetic stirring at 25° C. for not more than one hour. In the event that the diosgenin was not dissolved after one hour, the suspension was heated with stirring to 50° C. on a waterbath and then, in the absence of dissolution of the diosgenin after one hour at this temperature, the temperature of the suspension was raised to 70° C.
The above procedure was repeated, varying the amount of diosgenin placed in solution. It was thus shown that the maximum amount of diosgenin which can be dissolved at 50° C. in the mixture of solvents was 2%, whereas it was only 1% in each of the solvents taken individually.
The above procedure was repeated, varying the amount of diosgenin placed in solution. It was thus shown that the maximum amount of diosgenin which can be dissolved at 50° C. in the mixture of solvents was 4%, whereas it was only 1% in each of the solvents taken individually.
The above procedure was repeated, varying the amount of diosgenin placed in solution. It was thus shown that the maximum amount of diosgenin which can be dissolved at 50° C. in the mixture of solvents was 3%, whereas it was only 1% in each of the solvents taken individually.
The amount of diosgenin placed in solution was then varied. It was thus shown that the maximum amount of diosgenin which can be dissolved at 50° C. in the mixture of solvents was 3%, whereas it was only 1% in the ester and 2% in the UV screening agent.

As for `C[C@@H]1CC[C@@]2(OC1)O[C@H]1C[C@H]3[C@@H]4CC=C5C[C@@H](O)CC[C@]5(C)[C@H]4CC[C@]3(C)[C@H]1[C@@H]2C` [diosgenin, spirost-5-en-3-beta-ol], the “maximum amount of diosgenin which can be dissolved” value (“maximum amount” for short) (50/50 mixture of isononyl isononanoate and hexyldecanol) came out at 3%; the “maximum amount” value (50/50 mixture of isononyl isononanoate and octyl methoxycinnamate) is on record as 3%; the “maximum amount” value (50/50 mixture of isopropyl myristate and hexyldecanol) was determined as 4%; the “maximum amount” value (50/50 mixture of triglyceryl triisostearate and hexyldecanol) came to 2%; the “maximum amount” value (hexyldecanol taken individually) is 1%; the “maximum amount” value (isononyl isononanoate (ester) alone) was determined as 1%. Moreover, the “maximum amount” value runs as follows: (isopropyl myristate taken individually) 1%; (octyl methoxycinnamate (UV screening agent) alone) 2%; (triglyceryl triisostearate taken individually) 1%.
